Results taken from article PMC6521205 (Viruses, 2019).
Like-named read-outs stand apart in the source and are kept apart here.

Key:
[1] = test system: ZIKV PRVABC59/Human/2015/Puerto Rico; assay: CellTiter-Glo activity assay, ZIKV PRVABC59-infected neural stem cells; format: cell-based, Zika virus; details: for EC50: human neural stem cells, MOI 10, 72 h post-infection, CellTiter-Glo, ± SE, n = 4
[2] = test system: ZIKV H/PAN/2016/BEI-259634; assay: CellTiter-Glo activity assay, ZIKV H/PAN-infected neural stem cells; format: cell-based, Zika virus; details: read-out: EC50 H/PAN ZIKV
[3] = test system: human neural stem cells; assay: CellTiter-Glo toxicity in mock-infected neural stem cells; details: mock-infected neural stem cells, 72 h, CellTiter-Glo, ± SE, n = 4
[4] = biological target: ZIKV RdRP (Zika virus, UniProt A0A024B7W1); assay: Single nucleotide incorporation assay; format: biochemical; details: 150 µM nucleotide, 37 °C; for observed rate of incorporation, kobs: 1 µM RdRP, 200 nM P/T substrate, single exponential fit, n = 2
Sequence of ZIKV RdRP (A0A024B7W1 2772-3423): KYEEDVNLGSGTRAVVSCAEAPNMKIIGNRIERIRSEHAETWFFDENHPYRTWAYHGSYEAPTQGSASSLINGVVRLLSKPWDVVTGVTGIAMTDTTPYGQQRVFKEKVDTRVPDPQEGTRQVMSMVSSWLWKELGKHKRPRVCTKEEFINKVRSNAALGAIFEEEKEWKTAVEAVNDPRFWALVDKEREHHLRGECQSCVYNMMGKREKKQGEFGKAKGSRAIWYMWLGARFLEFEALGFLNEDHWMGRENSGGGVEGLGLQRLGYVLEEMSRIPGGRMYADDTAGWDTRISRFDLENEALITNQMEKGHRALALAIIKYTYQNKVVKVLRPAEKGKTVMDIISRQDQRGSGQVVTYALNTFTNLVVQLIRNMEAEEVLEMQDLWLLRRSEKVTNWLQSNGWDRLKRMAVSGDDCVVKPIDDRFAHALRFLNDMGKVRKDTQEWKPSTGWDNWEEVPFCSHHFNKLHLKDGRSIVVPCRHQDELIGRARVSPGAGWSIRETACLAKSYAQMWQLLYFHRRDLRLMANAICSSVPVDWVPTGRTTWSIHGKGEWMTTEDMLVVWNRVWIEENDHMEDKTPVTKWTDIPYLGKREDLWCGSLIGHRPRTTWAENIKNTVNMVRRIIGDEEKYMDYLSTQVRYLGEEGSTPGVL

[5] = test system: ZIKV H/PAN/2016/BEI-259634; format: cell-based, Zika virus; details: GSC 387 cells, H/PAN MOI 10, 72 h post-infection
[6] = test system: ZIKV H/PAN/2016/BEI-259634; assay: Plaque assay of ZIKV titers from treated hNSC cultures; format: cell-based, Zika virus; details: human fetal neural stem cells, H/PAN MOI 0.1, 48 h post-infection
[7] = CellTiter-Glo toxicity in mock-infected neural stem cells; details: human
[8] = human neural stem cells, MOI 10, 72 h post-infection, CellTiter-Glo, ± SE, n = 4
[9] = Zika virus, Neural stem cell, in Homo sapiens

For `CC(C)OC(=O)C(C)NP(=O)(OCC1CC(O)C(n2ccc(N)nc2=O)O1)Oc1ccccc1` (centres unmarked) [3′-Deoxycytidine aryloxyl phosphoramidate], the EC50 [1] was > 50 µM, the EC50 [2, 8] was > 50 µM and the CC50 [3] was > 50 µM.

For `C[C@@]1(F)[C@H](O)[C@@H](COP(=O)(O)OP(=O)(O)OP(=O)(O)O)O[C@H]1n1ccc(=O)[nH]c1=O` [2′-fluoro-2′-C-methyluridine triphosphate], the “observed rate of incorporation, kobs” value [4] was 0.0085 ± 0.001 % incorporation min^−1, the “maximal incorporation (plateau)” value [4] was 15% and the “time to half maximal incorporation” value [4] was ~90 min.

With `O=c1ccn([C@@H]2O[C@H](COP(=O)(O)OP(=O)(O)OP(=O)(O)O)[C@@H](O)[C@H]2O)c(=O)[nH]1` [UTP] the “observed rate of incorporation, kobs” value [4] was 0.151 ± 0.004 % incorporation min^−1, the “time to full incorporation” value [4] was ~ 30 min and the “time to half maximal incorporation” value [4] was ≤ 5 min.

With `C#CC1(O)C(O)C(COP(=O)(NC(C)C(=O)OC(C)C)Oc2ccccc2)OC1n1ccc(=O)[nH]c1=O` (centres unmarked) [2′-C-Ethynyluridine Aryloxy Phosphoramidate] the EC50 [2, 8] was 0.8 ± 1 µM and the CC50 [3] was > 50 µM.

With `COC1C(O)C(COP(=O)(NC(C)C(=O)OC(C)C)Oc2ccccc2)OC1n1ccc(N)nc1=O` (centres unmarked) [2′-O-Methylcytidine aryloxyl phosphoramidate] the EC50 [1] was > 50 µM, the EC50 [2, 8] was > 50 µM and the CC50 [3] was > 50 µM.

For `CC(C)OC(=O)C(C)NP(=O)(OCC1OC(n2ccc(=O)[nH]c2=O)C(C)(O)C1O)Oc1ccccc1` (centres unmarked) [2′-C-methyluridine aryloxyl phosphoramidate], the EC50 [1] was 1 ± 1 µM, the EC50 [2, 8] was 2 ± 1 µM and the “protection from ZIKV-induced cytopathic effect” value (“protection” below) ([5]; 10 µM compound) was “better able to protect against ZIKV-induced cytopathic effect”. For the same compound, the “protection” value ([5]; 30 µM compound) was “able to protect against the cytopathic effect”, the “ZIKV titers by plaque assay” value ([6]; 10 µM compound) was “undetectable levels” and the “ZIKV titers by plaque assay” value ([6]; 30 µM compound) was “undetectable levels”. It also gave a CC50 [3] of 47 ± 1 µM.

For `CC(C)OC(=O)C(C)NP(=O)(OCC1CC(O)C(n2cnc3c(N)ncnc32)O1)Oc1ccccc1` (centres unmarked) [3′-Deoxyadenosine aryloxyl phosphoramidate], the EC50 [1] was > 50 µM, the EC50 [2, 8] was > 50 µM and the CC50 [3] was > 50 µM.

In the case of `CC(C)OC(=O)C(C)NP(=O)(OCC1OC(n2cnc3c(N)ncnc32)C(C)(O)C1O)Oc1ccccc1` (centres unmarked) [2′-C-Methyladenosine aryloxyl phosphoramidate], the EC50 [1] is reported as 10 ± 1 µM, the EC50 [2, 8] is reported as 18 ± 1 µM and the CC50 [3] is reported as 42 ± 1 µM.

With `C[C@@]1(O)[C@H](O)[C@@H](COP(=O)(O)OP(=O)(O)OP(=O)(O)O)O[C@H]1n1ccc(=O)[nH]c1=O` [2′-C-methyluridine triphosphate] the “observed rate of incorporation, kobs” value [4] was 0.016 ± 0.001 % incorporation min^−1, the “maximal incorporation (plateau)” value [4] was 35% and the “time to half maximal incorporation” value [4] was ~ 45 min.

With `CC(C)OC(=O)C(C)NP(=O)(OCC1OC(n2ccc(N)nc2=O)C(C)(O)C1O)Oc1ccccc1` (centres unmarked) [2′-C-Methylcytidine aryloxyl phosphoramidate] the EC50 [1] was 48 ± 1 µM and the EC50 [2, 8] was > 50 µM.

With `COC1C(COP(=O)(NC(C)C(=O)OC(C)C)Oc2ccccc2)OC(n2ccc(=O)[nH]c2=O)C1O` (centres unmarked) [3′-O-Methyluridine aryloxyl phosphoramidate] the EC50 [1] was > 50 µM, the EC50 [2, 8] was > 50 µM and the CC50 [3] was > 50 µM.

In the case of `CSCCOP(=O)(NCCc1c[nH]c2ccccc12)OCC1OC(n2ccc(=O)[nH]c2=O)C(C)(O)C1O` (centres unmarked) [(5-(2,4-dioxo-3,4-dihydropyrimidin-1(2H)-yl)-3,4-dihydroxy-4-methyltetrahydrofuran-2-yl)methyl (2-(methylthio)ethyl) (2-(1H-indol-3-yl)ethyl)phosphoramidate], the EC50 [1, 9] is reported as > 50 µM, the “anti-ZIKV activity (in words)” value ([1]; neural stem cells, PRVABC59 and H/PAN strains, highest concentration 50 µM) is reported as “completely abolished activity” and the EC50 ([2]; Zika virus, Neural stem cell, human neural stem cells, MOI 10, 72 h post-infection, CellTiter-Glo, ± SE, n = 4) is reported as > 50 µM. The CC50 at 72 h ([7]; mock-infected neural stem cells (NSCs)) was > 50 µM.

For `CC(C)OC(=O)[C@H](C)N[P@](=O)(OC[C@H]1O[C@@H](n2ccc(=O)[nH]c2=O)[C@](C)(F)[C@@H]1O)Oc1ccccc1` [Sofosbuvir, reference compound], the EC50 [1, 9] was 35 ± 1 µM, the EC50 ([2]; Zika virus, Neural stem cell, 72 h) was 46 ± 1 µM and the “protection” value ([5]; 30 µM compound) was “able to protect against the cytopathic effect”. The “ZIKV titers by plaque assay” value ([6]; 30 µM compound) was “undetectable levels” and the CC50 at 72 h [7] was > 50 µM.
